Data reported in patent publication US20240279202A1 (NURIX THERAPEUTICS, INC., priority 2021, published 2024).

Biological target: T1, ITK (Mus musculus, UniProt Q03526)
T1 construct: mice were sacrificed and splenocytes were isolated and used to prepare protein lysates; from tissue; host or cells: mouse splenocytes (spleen) after oral dosing
T1 sequence (Q03526 1-625): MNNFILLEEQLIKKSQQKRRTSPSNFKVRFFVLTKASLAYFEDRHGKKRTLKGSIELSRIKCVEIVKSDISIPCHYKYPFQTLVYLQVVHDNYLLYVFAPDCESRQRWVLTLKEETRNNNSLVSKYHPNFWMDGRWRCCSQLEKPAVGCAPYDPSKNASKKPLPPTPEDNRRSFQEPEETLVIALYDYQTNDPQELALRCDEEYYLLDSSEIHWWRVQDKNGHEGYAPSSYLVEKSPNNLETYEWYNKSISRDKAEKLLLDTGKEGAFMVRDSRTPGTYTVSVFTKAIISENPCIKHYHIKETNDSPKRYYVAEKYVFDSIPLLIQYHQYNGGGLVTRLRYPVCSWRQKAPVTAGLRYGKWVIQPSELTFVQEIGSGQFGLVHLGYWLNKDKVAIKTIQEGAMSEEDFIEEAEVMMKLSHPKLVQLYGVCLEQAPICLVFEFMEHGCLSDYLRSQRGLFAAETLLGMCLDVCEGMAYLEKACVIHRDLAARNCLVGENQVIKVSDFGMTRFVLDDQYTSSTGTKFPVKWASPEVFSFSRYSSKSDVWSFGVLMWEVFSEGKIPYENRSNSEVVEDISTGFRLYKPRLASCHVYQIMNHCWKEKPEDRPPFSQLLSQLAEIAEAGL
Assay: Mouse PD assay for ITK degradation (Western blot, splenocytes after oral administration)
Type: in vivo
Settings: for ITK degradation in vivo at 6 hours (FIG. 2): 90 mg/kg PO; for ITK (%) 90 mpk PO, 6 h: percent ITK remaining in mouse splenocytes relative to vehicle
Description: Compounds 1, 3, 7, and 42 were formulated and administered at 90 mg/kg to mice by oral gavage (PO). Blood was collected at defined time points (after 1, 2, and 6 hours) after compounds administration to determine PK parameters. Concentration increased through 6 hours. Six hours later mice were sacrificed and splenocytes were isolated and used to prepare protein lysates. Total protein levels were determined in the lysates using the BCA assay according to standard methods. Equal amounts of protein were then analyzed by Western blot to determine the level of ITK expression in each sample. ITK band intensities were measured using Alpha View software and the percent of ITK remaining in each test animal was determined relative to the mean of ITK levels in vehicle control samples.
After 6 hours, splenocytes cells were harvested. ITK was evaluated by Western blotting.
Compounds 43, 4, 5, 10, 11, 12, 44, 14, 3, and 13 were administered to mice orally. After 6 hours, splenocytes cells were harvested. ITK was evaluated by Western blotting. Media was removed and cell pellets were lysed in 100 uL lysis buffer (RIPA buffer (Fisher, PI89901), cOmplete Mini EDTA-free protease inhibitor (Sigma 11836170001), Protease Inhibitor Cocktail (Sigma, P2714), Phosphatase Inhibitor Cocktail 2 and 3 (Sigma, P5726 and P0044), Benzonase (Sigma, E1014)). Cells were lysed overnight at −20° C. Following thaw, cells were centrifuged for 10 min at 13000 rpm, then transferred to new tube. Protein levels were determined by BCA Assay performed according to manufacturer's protocol (EMID Millipore, cat. no. 71285-3). Samples were combined with (4×) LDS Sample Buffer and (10×) Reducing Agent and H2O to equally load 20 ug protein per lane of a 26-well NuPAGE 4-12% Bis-Tris protein gel (1.0 mm, Thermo cat. no. NP0326). Samples were separated by running gels at constant 150 V in NuPAGE MES SDS Running Buffer. Following electrophoresis, proteins were transferred to nitrocellulose membranes using an iBlot Gel Transfer Device and iBlot Gel Transfer Stacks (Thermo cat. no. IB21001 and IB301001) and transfer method P3 (20V for 7 min). Membranes were blocked for 1 hr in 5% milk solution (TBS (0.2% Tween-20)). Following blocking, membranes were incubated with primary antibody (1:1000 CST ITK (2F12) #2380) overnight at 4° C. with gentle shaking. Blots were washed 2× in TBS (0.2% Tween-20), 30 min per wash. Following washes, blots were incubated in secondary HRP-conjugated antibody (Promega anti-Mouse IgG (H+L) HRP cat. no. W4021), 1:5000 in 5% milk solution (TBS (0.2% Tween-20)), for 1 hr at room temperature with gentle shaking. Blots were washed 2× in TBS (0.2% Tween-20), 30 min per wash. Blots were incubated with 1:1 mix of ECL reagents 1 & 2 (Amersham ECL Western Blotting Detection Reagent, cat. no. RPN2106) for 2 min at room temperature. Bands were visualized using a Protein Simple imager. Blots were then re-probed with a combination of anti-actin antibody (Sigma Monoclonal Mouse Anti-3-Actin (clone AC-15), cat. no. A5441) and secondary H1RP-conjugated antibody (Promega anti-Mouse IgG (H+L) HRP, cat. no. W4021) and similar steps were taken for incubation, wash, detection and visualization steps as above. The data was analyzed using Alpha View software. The densitometric reading for each sample band was normalized to that of the corresponding actin band per lane. Approximate % ITK remaining per sample was calculated as follows: […]
Once % ITK remaining has been calculated for each sample, groups are averaged together to show an means % ITK normalized to actin and relative to control.
Compounds 16, 17, and 18 were administered to mice orally. After 6 hours or 24 hours, splenocytes cells were harvested. ITK was evaluated by Western blotting. Plasma concentrations were determined by LC/MS/MS. Plasma samples were protein precipitated by addition of 100 μl of acetonitrile containing 50 ng/ml of internal standard. The resulting mixture was vortexed and centrifuged at 4000 RPM for 5 minutes. […]

[1] = mice, splenocytes, Western blot
[2] = mice, oral, splenocytes, Western blot

SMILES | ITK degradation in vivo at 6 hours (FIG. 3A, FIG. 4A) [2] | ITK (%) 90 mpk PO, 6 h [%] | other results
C[C@@H](C(=O)N(C)c1ccc2cc(-c3n[nH]c4c3CCC(C)(C)C4)[nH]c2c1)N1CCN(CC2CCN(c3cccc4c3n(C)c(=O)n4C3CCC(=O)NC3=O)CC2)CC1 (stereo partly drawn) [Compound 3, (2S)—N-(2-(6,6-dimethyl-4,5,6,7-tetrahydro-1H-indazol-3-yl)-1H-indol-6-yl)-2-(4-((1-(1-(2,6-dioxopiperidin-3-yl)-3-methyl-2-oxo-2,3-dihydro-1H-benzo[d]imidazol-4-yl)piperidin-4-yl)methyl)piperazin-1-yl)-N-methylpropanamide] | degraded ITK in vivo | 24 | ITK degradation in vivo at 6 hours (FIG. 2) [1]: degraded ITK in vivo; ITK degradation in vivo at 24 hours (FIG. 3A, FIG. 4A) (mice, oral, splenocytes, Western blot, 24 hours): degraded ITK in vivo
C[C@@H](C(=O)N(C)c1ccc2cc(-c3n[nH]c4c3CCC(C)(C)C4)[nH]c2c1)N1CCN(C[C@H]2CCN(c3ccc4c(c3)n(C)c(=O)n4C3CCC(=O)NC3=O)C2)CC1 (stereo partly drawn) [Compound 5, (2S)—N-(2-(6,6-dimethyl-4,5,6,7-tetrahydro-1H-indazol-3-yl)-1H-indol-6-yl)-2-(4-(((3R)-1-(1-(2,6-dioxopiperidin-3-yl)-3-methyl-2-oxo-2,3-dihydro-1H-benzo[d]imidazol-5-yl)pyrrolidin-3-yl)methyl)piperazin-1-yl)-N-methylpropanamide] | degraded ITK in vivo | 97 | 
C[C@@H](C(=O)N(C)c1ccc2cc(-c3n[nH]c4c3CCC(C)(C)C4)[nH]c2c1)N1CCN(CC2CCN(c3ccc(C(=O)NC4CCC(=O)NC4=O)nc3)CC2)CC1 (stereo partly drawn) [Compound 7, 5-(4-((4-((S)-1-((2-(6,6-dimethyl-4,5,6,7-tetrahydro-1H-indazol-3-yl)-1H-indol-6-yl)(methyl)amino)-1-oxopropan-2-yl)piperazin-1-yl)methyl)piperidin-1-yl)-N-(2,6-dioxopiperidin-3-yl)picolinamide] |  | 100 | ITK degradation in vivo at 6 hours (FIG. 2) [1]: degraded ITK in vivo
CN(C(=O)CC[C@H]1CCN(c2ccc3c(c2)C(=O)N(C2CCC(=O)NC2=O)C3=O)C1)c1ccc2cc(-c3n[nH]c4c3C[C@@H]3C(F)(F)[C@]3(C)C4)[nH]c2c1 (stereo in doubt) [Compound 68] |  |  | ITK (%) 90 mpk PO, 6 h (90 mg/kg): 240%
CN(C(=O)C1CN(C2CCN(c3ccc4c(c3)C(=O)N(C3CCC(=O)NC3=O)C4=O)CC2)C1)c1ccc2cc(-c3n[nH]c4c3CCC(C)(C)C4)[nH]c2c1 (stereo not shown) [Compound 35, N-(2-(6,6-dimethyl-4,5,6,7-tetrahydro-1H-indazol-3-yl)-1H-indol-6-yl)-1-(1-(2-(2,6-dioxopiperidin-3-yl)-1,3-dioxoisoindolin-5-yl)piperidin-4-yl)-N-methylazetidine-3-carboxamide] |  | 108 | 
C[C@@H](C(=O)N(C)c1ccc2cc(-c3n[nH]c4c3CCC(C)(C)C4)[nH]c2c1)N1CCN(C[C@@H]2CCN(c3ccc4c(c3)n(C)c(=O)n4C3CCC(=O)NC3=O)C2)CC1 (stereo partly drawn) [Compound 4, (2S)—N-(2-(6,6-dimethyl-4,5,6,7-tetrahydro-1H-indazol-3-yl)-1H-indol-6-yl)-2-(4-(((3S)-1-(1-(2,6-dioxopiperidin-3-yl)-3-methyl-2-oxo-2,3-dihydro-1H-benzo[d]imidazol-5-yl)pyrrolidin-3-yl)methyl)piperazin-1-yl)-N-methylpropanamide] | degraded ITK in vivo | 75 | 

More lines, main results first:

ITK degradation in vivo at 6 hours (FIG. 3A, FIG. 4A) [2] | ITK (%) 90 mpk PO, 6 h [%] | SMILES | other results
degraded ITK in vivo | 75 | C[C@@]12Cc3[nH]nc(C(=O)Nc4cnn(CC5CN(C[C@H]6CCN(c7ccc8c(c7)C(=O)N(C7CCC(=O)NC7=O)C8=O)C6)C5)c4)c3C[C@@H]1C2(F)F (stereo partly drawn) [Compound 44, (4aS,5aR)-N-(1-((1-(((3R)-1-(2-(2,6-dioxopiperidin-3-yl)-1,3-dioxoisoindolin-5-yl)pyrrolidin-3-yl)methyl)azetidin-3-yl)methyl)-1H-pyrazol-4-yl)-5,5-difluoro-5a-methyl-1,4,4a,5,5a,6-hexahydrocyclopropa[f]indazole-3-carboxamide] | 
 | 8 | C[C@@]12Cc3[nH]nc(-c4cc5ccc(N6CCC7(CCN(CC8CCN(c9ccc(C%10CCC(=O)NC%10=O)cn9)CC8)CC7)C6=O)cc5[nH]4)c3C[C@@H]1C2(F)F (stereo partly drawn) [Compound 19, 3-(6-(4-((2-(2-((4aS,5aR)-5,5-difluoro-5a-methyl-1,4,4a,5,5a,6-hexahydrocyclopropa[f]indazol-3-yl)-1H-indol-6-yl)-1-oxo-2,8-diazaspiro[4.5]decan-8-yl)methyl)piperidin-1-yl)pyridin-3-yl)piperidine-2,6-dione] | 
degraded ITK in vivo | 11 | C[C@@H](C(=O)N(C)c1ccc2cc(-c3n[nH]c4c3CCC(C)(C)C4)[nH]c2c1)N1CCN(CC2CCN(c3ccc(C4CCC(=O)NC4=O)cn3)CC2)CC1 (stereo partly drawn) [Compound 10, (2S)—N-(2-(6,6-dimethyl-4,5,6,7-tetrahydro-1H-indazol-3-yl)-1H-indol-6-yl)-2(4-((1-(5-(2,6-dioxopiperidin-3-yl)pyridin-2-yl)piperidin-4-yl)methyl)piperazin-1-yl)-N-methylpropanamide] | 
 | 42.7 | C[C@@H](C(=O)N(C)c1ccc2cc(-c3n[nH]c4c3C[C@@H]3C(F)(F)[C@]3(C)C4)[nH]c2c1)N1CCN(CC2CCN(c3ccc(C(=O)NC4CCC(=O)NC4=O)nc3)CC2)CC1 (stereo partly drawn) [Compound 66, 5-(4-((4-((S)-1-((2-((4aS,5aR)-5,5-difluoro-5a-methyl-1,4,4a,5,5a,6-hexahydrocyclopropa[f]indazol-3-yl)-1H-indol-6-yl)(methyl)amino)-1-oxopropan-2-yl)piperazin-1-yl)methyl)piperidin-1-yl)-N-(2,6-dioxopiperidin-3-yl)picolinamide] | 
 | 113 | C[C@@]12Cc3[nH]nc(C(=O)Nc4cnn(CC5CN(C(=O)C6CCN(c7ccc(C8CCC(=O)NC8=O)cn7)CC6)C5)c4)c3C[C@@H]1C2(F)F (stereo partly drawn) [Compound 50, (4aS,5aR)-N-(1-((1-(1-(5-(2,6-dioxopiperidin-3-yl)pyridin-2-yl)piperidine-4-carbonyl)azetidin-3-yl)methyl)-1H-pyrazol-4-yl)-5,5-difluoro-5a-methyl-1,4,4a,5,5a,6-hexahydrocyclopropa[f]indazole-3-carboxamide] | 
